{
  "source": "paper PMC8401933",
  "about": "(Molecules, 2021)",
  "test_in_all_cases": "KINOMEscan binding",
  "details_in_all_cases": "read-out: Percent Control",
  "key": {"DYRK1A": {"molecular_target": "T1, DYRK1A (Homo sapiens, UniProt Q13627)", "T1 construct": "purchased Eurofins DiscoverX KINOMEscan"}, "PFPK5(P.falciparum)": {"molecular_target": "T2, PFPK5(P.falciparum) (Plasmodium falciparum, UniProt P61075)", "T2 construct": "purchased Eurofins DiscoverX KINOMEscan"}, "FGFR2": {"molecular_target": "T3, FGFR2 (Homo sapiens, UniProt P21802)", "T3 construct": "purchased Eurofins DiscoverX KINOMEscan", "T3 sequence (P21802 22-821)": "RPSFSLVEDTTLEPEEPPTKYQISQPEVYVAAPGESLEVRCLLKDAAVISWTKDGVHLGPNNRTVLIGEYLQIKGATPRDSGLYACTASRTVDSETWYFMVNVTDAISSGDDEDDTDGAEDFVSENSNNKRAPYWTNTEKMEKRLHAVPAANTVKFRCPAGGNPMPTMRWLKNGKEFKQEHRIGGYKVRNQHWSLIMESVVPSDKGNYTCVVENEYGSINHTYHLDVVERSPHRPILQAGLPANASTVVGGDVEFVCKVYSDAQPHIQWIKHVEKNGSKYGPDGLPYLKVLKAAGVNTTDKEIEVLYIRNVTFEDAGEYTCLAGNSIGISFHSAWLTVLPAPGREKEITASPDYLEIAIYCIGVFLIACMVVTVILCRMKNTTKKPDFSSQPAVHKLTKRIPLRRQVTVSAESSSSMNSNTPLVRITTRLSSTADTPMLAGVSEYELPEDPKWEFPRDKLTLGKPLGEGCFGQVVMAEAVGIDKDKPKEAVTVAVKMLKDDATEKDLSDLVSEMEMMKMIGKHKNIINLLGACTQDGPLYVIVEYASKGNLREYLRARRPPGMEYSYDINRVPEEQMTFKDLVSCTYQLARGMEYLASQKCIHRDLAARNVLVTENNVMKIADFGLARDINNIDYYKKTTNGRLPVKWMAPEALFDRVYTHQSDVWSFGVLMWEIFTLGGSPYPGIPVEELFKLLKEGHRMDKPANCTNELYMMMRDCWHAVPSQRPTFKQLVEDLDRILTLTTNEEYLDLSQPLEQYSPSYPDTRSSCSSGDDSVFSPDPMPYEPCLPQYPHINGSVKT"}, "FLT3-autoinhibited": {"molecular_target": "T4, FLT3-autoinhibited (Homo sapiens, UniProt P36888)", "T4 construct": "purchased Eurofins DiscoverX KINOMEscan"}, "PAK4": {"molecular_target": "T5, PAK4 (Homo sapiens, UniProt O96013)", "T5 construct": "purchased Eurofins DiscoverX KINOMEscan"}, "EPHB4": {"molecular_target": "T6, EPHB4 (Homo sapiens, UniProt P54760)", "T6 construct": "purchased Eurofins DiscoverX KINOMEscan"}, "ABL1-phosphorylated": {"molecular_target": "T7, ABL1-phosphorylated (Homo sapiens, UniProt P00519)", "T7 construct": "purchased Eurofins DiscoverX KINOMEscan"}, "MAP3K2": {"molecular_target": "T8, MAP3K2 (Homo sapiens, UniProt Q9Y2U5)", "T8 construct": "purchased Eurofins DiscoverX KINOMEscan"}, "PHKG2": {"molecular_target": "T9, PHKG2 (Homo sapiens, UniProt P15735)", "T9 construct": "purchased Eurofins DiscoverX KINOMEscan"}, "MELK": {"molecular_target": "T10, MELK (Homo sapiens, UniProt Q14680)", "T10 construct": "purchased Eurofins DiscoverX KINOMEscan"}, "EPHA3": {"molecular_target": "T11, EPHA3 (Homo sapiens, UniProt P29320)", "T11 construct": "purchased Eurofins DiscoverX KINOMEscan"}, "NEK10": {"molecular_target": "T12, NEK10 (Homo sapiens, UniProt Q6ZWH5)", "T12 construct": "purchased Eurofins DiscoverX KINOMEscan"}, "ADCK3": {"molecular_target": "T13, ADCK3 (Homo sapiens, UniProt Q8NI60)", "T13 construct": "purchased Eurofins DiscoverX KINOMEscan", "T13 sequence (Q8NI60 163-647)": "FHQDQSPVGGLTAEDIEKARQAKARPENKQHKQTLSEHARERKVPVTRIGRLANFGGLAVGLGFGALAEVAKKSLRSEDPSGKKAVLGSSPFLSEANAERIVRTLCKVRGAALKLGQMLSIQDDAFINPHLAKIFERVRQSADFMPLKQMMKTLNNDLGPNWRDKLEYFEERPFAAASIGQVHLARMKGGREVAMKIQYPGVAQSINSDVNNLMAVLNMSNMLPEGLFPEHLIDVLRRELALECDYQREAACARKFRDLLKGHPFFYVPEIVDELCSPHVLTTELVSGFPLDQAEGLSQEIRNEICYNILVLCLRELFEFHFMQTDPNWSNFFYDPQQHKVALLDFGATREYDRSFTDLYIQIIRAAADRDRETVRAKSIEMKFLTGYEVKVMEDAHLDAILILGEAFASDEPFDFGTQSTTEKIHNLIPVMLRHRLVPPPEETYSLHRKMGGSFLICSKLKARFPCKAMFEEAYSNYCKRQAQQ"}, "PRKCH": {"molecular_target": "T14, PRKCH (Homo sapiens, UniProt P24723)", "T14 construct": "purchased Eurofins DiscoverX KINOMEscan"}, "ERK5": {"molecular_target": "T15, ERK5 (Homo sapiens, UniProt Q13164)", "T15 construct": "purchased Eurofins DiscoverX KINOMEscan"}, "NEK1": {"molecular_target": "T16, NEK1 (Homo sapiens, UniProt Q96PY6)", "T16 construct": "purchased Eurofins DiscoverX KINOMEscan"}, "PDGFRA": {"molecular_target": "T17, PDGFRA (Homo sapiens, UniProt P16234)", "T17 construct": "purchased Eurofins DiscoverX KINOMEscan"}, "QSK": {"molecular_target": "T18, QSK (Homo sapiens, UniProt Q9Y2K2)", "T18 construct": "purchased Eurofins DiscoverX KINOMEscan"}, "TAOK2": {"molecular_target": "T19, TAOK2 (Homo sapiens, UniProt Q9UL54)", "T19 construct": "purchased Eurofins DiscoverX KINOMEscan"}, "TNNI3K": {"molecular_target": "T20, TNNI3K (Homo sapiens, UniProt Q59H18)", "T20 construct": "purchased Eurofins DiscoverX KINOMEscan"}, "TNIK": {"molecular_target": "T21, TNIK (Homo sapiens, UniProt Q9UKE5)", "T21 construct": "purchased Eurofins DiscoverX KINOMEscan"}, "NDR2": {"molecular_target": "T22, NDR2 (Homo sapiens, UniProt Q9Y2H1)", "T22 construct": "purchased Eurofins DiscoverX KINOMEscan"}, "DRAK1": {"molecular_target": "T23, DRAK1 (Homo sapiens, UniProt Q9UEE5)", "T23 construct": "purchased Eurofins DiscoverX KINOMEscan"}, "EPHB1": {"molecular_target": "T24, EPHB1 (Homo sapiens, UniProt P54762)", "T24 construct": "purchased Eurofins DiscoverX KINOMEscan"}, "AURKA": {"molecular_target": "T25, AURKA (Homo sapiens, UniProt O14965)", "T25 construct": "purchased Eurofins DiscoverX KINOMEscan"}, "BRSK2": {"molecular_target": "T26, BRSK2 (Homo sapiens, UniProt Q8IWQ3)", "T26 construct": "purchased Eurofins DiscoverX KINOMEscan"}, "BMX": {"molecular_target": "T27, BMX (Homo sapiens, UniProt P51813)", "T27 construct": "purchased Eurofins DiscoverX KINOMEscan"}, "NEK7": {"molecular_target": "T28, NEK7 (Homo sapiens, UniProt Q8TDX7)", "T28 construct": "purchased Eurofins DiscoverX KINOMEscan"}, "FLT3(N841I)": {"molecular_target": "T29, FLT3(N841I) (Homo sapiens, UniProt P36888, N841I)", "T29 construct": "purchased Eurofins DiscoverX KINOMEscan"}, "EPHB3": {"molecular_target": "T30, EPHB3 (Homo sapiens, UniProt P54753)", "T30 construct": "purchased Eurofins DiscoverX KINOMEscan", "T30 sequence (P54753 34-998)": "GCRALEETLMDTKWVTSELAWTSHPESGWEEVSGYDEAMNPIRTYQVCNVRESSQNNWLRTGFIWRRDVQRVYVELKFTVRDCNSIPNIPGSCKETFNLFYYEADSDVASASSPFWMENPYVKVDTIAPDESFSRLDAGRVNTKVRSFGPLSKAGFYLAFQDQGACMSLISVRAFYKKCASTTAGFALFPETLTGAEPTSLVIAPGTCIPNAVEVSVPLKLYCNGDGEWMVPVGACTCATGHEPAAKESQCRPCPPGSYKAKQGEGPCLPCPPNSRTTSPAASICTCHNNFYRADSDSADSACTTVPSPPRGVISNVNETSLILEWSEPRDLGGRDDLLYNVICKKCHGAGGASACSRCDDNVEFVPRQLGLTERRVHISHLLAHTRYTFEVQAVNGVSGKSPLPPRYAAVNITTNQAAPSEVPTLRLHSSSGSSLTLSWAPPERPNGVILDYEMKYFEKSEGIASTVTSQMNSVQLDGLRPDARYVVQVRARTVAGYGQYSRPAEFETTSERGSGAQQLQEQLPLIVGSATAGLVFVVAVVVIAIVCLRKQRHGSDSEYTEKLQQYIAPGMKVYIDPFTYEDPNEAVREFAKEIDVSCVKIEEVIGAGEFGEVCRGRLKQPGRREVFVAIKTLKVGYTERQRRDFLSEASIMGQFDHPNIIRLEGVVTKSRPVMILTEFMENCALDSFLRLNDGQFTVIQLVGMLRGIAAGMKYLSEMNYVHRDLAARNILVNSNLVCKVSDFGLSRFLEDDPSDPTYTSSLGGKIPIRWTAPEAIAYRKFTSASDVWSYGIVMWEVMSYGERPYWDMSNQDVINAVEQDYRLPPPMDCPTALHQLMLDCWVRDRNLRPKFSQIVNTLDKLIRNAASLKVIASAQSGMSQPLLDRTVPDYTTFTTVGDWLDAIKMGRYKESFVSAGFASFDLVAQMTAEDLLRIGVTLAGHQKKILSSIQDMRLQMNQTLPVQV"}, "MKNK2": {"molecular_target": "T31, MKNK2 (Homo sapiens, UniProt Q9HBH9)", "T31 construct": "purchased Eurofins DiscoverX KINOMEscan"}, "MST1": {"molecular_target": "T32, MST1 (Homo sapiens, UniProt Q13043)", "T32 construct": "purchased Eurofins DiscoverX KINOMEscan"}, "INSR": {"molecular_target": "T33, INSR (Homo sapiens, UniProt P06213)", "T33 construct": "purchased Eurofins DiscoverX KINOMEscan"}, "CSNK1A1": {"molecular_target": "T34, CSNK1A1 (Homo sapiens, UniProt P48729)", "T34 construct": "purchased Eurofins DiscoverX KINOMEscan"}, "ZAK": {"molecular_target": "T35, ZAK (Homo sapiens, UniProt Q9NYL2)", "T35 construct": "purchased Eurofins DiscoverX KINOMEscan"}, "ALK(L1196M)": {"molecular_target": "T36, ALK(L1196M) (Homo sapiens, UniProt Q9UM73, L1196M)", "T36 construct": "purchased Eurofins DiscoverX KINOMEscan", "T36 sequence (Q9UM73 19-1620 L1196M)": "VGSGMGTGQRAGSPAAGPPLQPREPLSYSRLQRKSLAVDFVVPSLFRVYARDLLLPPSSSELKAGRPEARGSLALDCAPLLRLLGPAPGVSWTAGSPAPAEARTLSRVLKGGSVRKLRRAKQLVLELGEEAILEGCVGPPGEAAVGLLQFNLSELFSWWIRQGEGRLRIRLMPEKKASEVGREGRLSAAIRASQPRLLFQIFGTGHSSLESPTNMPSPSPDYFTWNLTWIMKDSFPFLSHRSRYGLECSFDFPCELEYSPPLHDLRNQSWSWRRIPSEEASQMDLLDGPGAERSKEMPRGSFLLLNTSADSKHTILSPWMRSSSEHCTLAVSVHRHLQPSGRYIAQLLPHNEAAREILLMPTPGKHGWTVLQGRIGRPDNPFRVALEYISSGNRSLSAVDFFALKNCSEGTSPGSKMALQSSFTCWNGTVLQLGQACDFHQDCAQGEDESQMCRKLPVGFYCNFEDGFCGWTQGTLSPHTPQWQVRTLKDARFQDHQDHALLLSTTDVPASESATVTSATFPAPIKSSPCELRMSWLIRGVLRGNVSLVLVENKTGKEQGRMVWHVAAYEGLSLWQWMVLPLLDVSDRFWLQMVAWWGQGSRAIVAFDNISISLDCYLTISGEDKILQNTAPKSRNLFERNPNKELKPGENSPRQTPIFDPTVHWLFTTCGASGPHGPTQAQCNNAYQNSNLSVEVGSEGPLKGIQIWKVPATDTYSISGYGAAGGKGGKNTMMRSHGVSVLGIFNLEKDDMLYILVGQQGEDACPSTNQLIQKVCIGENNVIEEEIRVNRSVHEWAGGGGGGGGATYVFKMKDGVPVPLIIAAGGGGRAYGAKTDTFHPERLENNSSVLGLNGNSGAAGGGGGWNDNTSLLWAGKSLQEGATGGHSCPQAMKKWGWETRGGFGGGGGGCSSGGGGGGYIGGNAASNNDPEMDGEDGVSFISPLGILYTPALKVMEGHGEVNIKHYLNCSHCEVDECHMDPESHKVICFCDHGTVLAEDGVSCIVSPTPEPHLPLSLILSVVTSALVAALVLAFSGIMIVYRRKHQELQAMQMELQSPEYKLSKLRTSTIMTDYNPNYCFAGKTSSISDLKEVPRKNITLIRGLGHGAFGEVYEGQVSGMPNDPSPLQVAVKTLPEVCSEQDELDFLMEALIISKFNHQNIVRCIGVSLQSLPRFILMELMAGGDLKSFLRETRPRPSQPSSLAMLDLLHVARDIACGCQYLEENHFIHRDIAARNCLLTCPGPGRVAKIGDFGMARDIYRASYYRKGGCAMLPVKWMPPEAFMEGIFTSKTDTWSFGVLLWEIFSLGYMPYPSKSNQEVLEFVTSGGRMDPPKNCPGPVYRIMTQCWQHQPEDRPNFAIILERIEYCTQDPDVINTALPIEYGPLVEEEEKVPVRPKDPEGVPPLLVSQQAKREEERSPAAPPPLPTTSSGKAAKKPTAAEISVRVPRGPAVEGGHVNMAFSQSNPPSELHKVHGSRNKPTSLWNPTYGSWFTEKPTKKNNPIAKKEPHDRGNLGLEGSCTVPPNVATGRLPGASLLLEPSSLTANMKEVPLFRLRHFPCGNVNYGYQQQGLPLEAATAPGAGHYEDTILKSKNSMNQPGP"}, "SRPK1": {"molecular_target": "T37, SRPK1 (Homo sapiens, UniProt Q96SB4)", "T37 construct": "purchased Eurofins DiscoverX KINOMEscan"}, "KIT(D816V)": {"molecular_target": "T38, KIT(D816V) (Homo sapiens, UniProt P10721, D816V)", "T38 construct": "purchased Eurofins DiscoverX KINOMEscan"}, "BIKE": {"molecular_target": "T39, BIKE (Homo sapiens, UniProt Q9NSY1)", "T39 construct": "purchased Eurofins DiscoverX KINOMEscan"}, "MAK": {"molecular_target": "T40, MAK (Homo sapiens, UniProt P20794)", "T40 construct": "purchased Eurofins DiscoverX KINOMEscan", "T40 sequence (P20794 whole entry)": "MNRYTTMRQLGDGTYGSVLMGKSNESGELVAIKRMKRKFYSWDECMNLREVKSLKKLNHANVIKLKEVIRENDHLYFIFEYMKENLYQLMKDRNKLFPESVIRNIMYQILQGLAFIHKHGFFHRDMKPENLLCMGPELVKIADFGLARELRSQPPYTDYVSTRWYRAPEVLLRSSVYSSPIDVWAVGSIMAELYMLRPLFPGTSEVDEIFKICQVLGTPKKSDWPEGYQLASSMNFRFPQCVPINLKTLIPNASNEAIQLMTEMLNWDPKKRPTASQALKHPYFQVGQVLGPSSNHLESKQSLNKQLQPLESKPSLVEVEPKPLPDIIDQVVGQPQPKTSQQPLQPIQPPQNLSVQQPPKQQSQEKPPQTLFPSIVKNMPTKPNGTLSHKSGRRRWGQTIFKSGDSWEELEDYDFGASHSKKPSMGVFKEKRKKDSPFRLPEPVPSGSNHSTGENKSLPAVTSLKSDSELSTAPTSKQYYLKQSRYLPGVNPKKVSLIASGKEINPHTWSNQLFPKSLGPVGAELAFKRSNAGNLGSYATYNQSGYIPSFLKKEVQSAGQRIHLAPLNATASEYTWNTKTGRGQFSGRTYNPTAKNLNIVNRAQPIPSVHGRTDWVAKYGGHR"}, "ANKK1": {"molecular_target": "T41, ANKK1 (Homo sapiens, UniProt Q8NFD2)", "T41 construct": "purchased Eurofins DiscoverX KINOMEscan"}, "STK16": {"molecular_target": "T42, STK16 (Homo sapiens, UniProt O75716)", "T42 construct": "purchased Eurofins DiscoverX KINOMEscan"}, "IGF1R": {"molecular_target": "T43, IGF1R (Homo sapiens, UniProt P08069)", "T43 construct": "purchased Eurofins DiscoverX KINOMEscan"}, "JNK2": {"molecular_target": "T44, JNK2 (Homo sapiens, UniProt P45984)", "T44 construct": "purchased Eurofins DiscoverX KINOMEscan"}, "CDKL3": {"molecular_target": "T45, CDKL3 (Homo sapiens, UniProt Q8IVW4)", "T45 construct": "purchased Eurofins DiscoverX KINOMEscan", "T45 sequence (Q8IVW4 whole entry)": "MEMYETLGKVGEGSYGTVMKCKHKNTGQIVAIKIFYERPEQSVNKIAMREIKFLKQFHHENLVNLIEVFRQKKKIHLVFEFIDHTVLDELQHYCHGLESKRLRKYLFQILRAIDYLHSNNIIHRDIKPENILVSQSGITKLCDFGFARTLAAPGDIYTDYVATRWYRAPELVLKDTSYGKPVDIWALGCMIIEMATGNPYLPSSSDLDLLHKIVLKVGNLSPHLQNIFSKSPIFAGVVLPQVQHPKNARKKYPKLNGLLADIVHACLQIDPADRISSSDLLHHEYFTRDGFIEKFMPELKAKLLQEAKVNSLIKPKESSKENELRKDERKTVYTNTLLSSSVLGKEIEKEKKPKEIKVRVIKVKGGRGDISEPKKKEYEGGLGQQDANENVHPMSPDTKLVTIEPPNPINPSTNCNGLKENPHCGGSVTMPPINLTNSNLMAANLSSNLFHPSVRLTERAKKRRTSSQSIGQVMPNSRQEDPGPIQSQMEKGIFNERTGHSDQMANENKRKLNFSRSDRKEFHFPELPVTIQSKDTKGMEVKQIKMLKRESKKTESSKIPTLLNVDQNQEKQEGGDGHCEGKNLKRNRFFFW"}},
  "data": [
    {"molecule": "CC(C)NC(=O)COc1cccc(-c2nc(Nc3ccc4[nH]ncc4c3)c3ccccc3n2)c1", "note": "[KD025, 2-(3-(4-((1H-indazol-5-yl)amino)quinazolin-2-yl)phenoxy)-N-isopropylacetamide]", "values": [
      {"measurement": "remaining binding at 10 µM", "setting": "DYRK1A", "value": 72, "unit": "%"},
      {"measurement": "remaining binding at 10 µM", "setting": "PFPK5(P.falciparum)", "value": 100, "unit": "%"},
      {"measurement": "remaining binding at 10 µM", "setting": "FGFR2", "value": 84, "unit": "%"},
      {"measurement": "remaining binding at 10 µM", "setting": "FLT3-autoinhibited", "value": 71, "unit": "%"},
      {"measurement": "remaining binding at 10 µM", "setting": "PAK4", "value": 100, "unit": "%"},
      {"measurement": "remaining binding at 10 µM", "setting": "EPHB4", "value": 95, "unit": "%"},
      {"measurement": "remaining binding at 10 µM", "setting": "ABL1-phosphorylated", "value": 73, "unit": "%"},
      {"measurement": "remaining binding at 10 µM", "setting": "MAP3K2", "value": 95, "unit": "%"},
      {"measurement": "remaining binding at 10 µM", "setting": "PHKG2", "value": 100, "unit": "%"},
      {"measurement": "remaining binding at 10 µM", "setting": "MELK", "value": 83, "unit": "%"},
      {"measurement": "remaining binding at 10 µM", "setting": "EPHA3", "value": 75, "unit": "%"},
      {"measurement": "remaining binding at 10 µM", "setting": "NEK10", "value": 96, "unit": "%"},
      {"measurement": "remaining binding at 10 µM", "setting": "ADCK3", "value": 78, "unit": "%"},
      {"measurement": "remaining binding at 10 µM", "setting": "PRKCH", "value": 96, "unit": "%"},
      {"measurement": "remaining binding at 10 µM", "setting": "ERK5", "value": 100, "unit": "%"},
      {"measurement": "remaining binding at 10 µM", "setting": "NEK1", "value": 99, "unit": "%"},
      {"measurement": "remaining binding at 10 µM", "setting": "PDGFRA", "value": 80, "unit": "%"},
      {"measurement": "remaining binding at 10 µM", "setting": "QSK", "value": 88, "unit": "%"},
      {"measurement": "remaining binding at 10 µM", "setting": "TAOK2", "value": 83, "unit": "%"},
      {"measurement": "remaining binding at 10 µM", "setting": "TNNI3K", "value": 92, "unit": "%"},
      {"measurement": "remaining binding at 10 µM", "setting": "TNIK", "value": 100, "unit": "%"},
      {"measurement": "remaining binding at 10 µM", "setting": "NDR2", "value": 77, "unit": "%"},
      {"measurement": "remaining binding at 10 µM", "setting": "DRAK1", "value": 39, "unit": "%"},
      {"measurement": "remaining binding at 10 µM", "setting": "EPHB1", "value": 98, "unit": "%"},
      {"measurement": "remaining binding at 10 µM", "setting": "AURKA", "value": 75, "unit": "%"},
      {"measurement": "remaining binding at 10 µM", "setting": "BRSK2", "value": 95, "unit": "%"},
      {"measurement": "remaining binding at 10 µM", "setting": "BMX", "value": 69, "unit": "%"},
      {"measurement": "remaining binding at 10 µM", "setting": "NEK7", "value": 91, "unit": "%"},
      {"measurement": "remaining binding at 10 µM", "setting": "FLT3(N841I)", "value": 19, "unit": "%"},
      {"measurement": "remaining binding at 10 µM", "setting": "EPHB3", "value": 99, "unit": "%"},
      {"measurement": "remaining binding at 10 µM", "setting": "MKNK2", "value": 68, "unit": "%"},
      {"measurement": "remaining binding at 10 µM", "setting": "MST1", "value": 82, "unit": "%"},
      {"measurement": "remaining binding at 10 µM", "setting": "INSR", "value": 94, "unit": "%"},
      {"measurement": "remaining binding at 10 µM", "setting": "CSNK1A1", "value": 80, "unit": "%"},
      {"measurement": "remaining binding at 10 µM", "setting": "ZAK", "value": 77, "unit": "%"},
      {"measurement": "remaining binding at 10 µM", "setting": "ALK(L1196M)", "value": 95, "unit": "%"},
      {"measurement": "remaining binding at 10 µM", "setting": "SRPK1", "value": 7, "unit": "%"},
      {"measurement": "remaining binding at 10 µM", "setting": "KIT(D816V)", "value": 57, "unit": "%"},
      {"measurement": "remaining binding at 10 µM", "setting": "BIKE", "value": 3.9, "unit": "%"},
      {"measurement": "remaining binding at 10 µM", "setting": "MAK", "value": 84, "unit": "%"},
      {"measurement": "remaining binding at 10 µM", "setting": "ANKK1", "value": 72, "unit": "%"},
      {"measurement": "remaining binding at 10 µM", "setting": "STK16", "value": 62, "unit": "%"},
      {"measurement": "remaining binding at 10 µM", "setting": "IGF1R", "value": 56, "unit": "%"},
      {"measurement": "remaining binding at 10 µM", "setting": "JNK2", "value": 66, "unit": "%"},
      {"measurement": "remaining binding at 10 µM", "setting": "CDKL3", "value": 91, "unit": "%"}
    ]}
  ]
}
